This note sets out measurements from patent publication US8334315B2, “Substituted aromatic carboxamide and urea derivatives as vanilloid receptor ligands” (Gruenenthal GmbH, priority 2009, dated 2012).

Assay [1] addresses T1, hVR1 (Homo sapiens, UniProt Q8NER1).
T1 construct: expressed in transfected cells; host or cells: CHO K1 cells (ECACC), stably transfected
Kind of assay: Functional test on human VR1, NADA (N-arachidonoyl dopamine) stimulus. In kind it is cell-based, human being. Conditions: includes values given in brackets after pAG, read-out: Ki (human being) [nM] NADA. The source says: II. Functional Tests Carried Out on the Vanilloid Receptor (VR1)
The agonistic or antagonistic effect of the substances to be tested on the vanilloid receptor 1 (VR1) can also be determined using the following assay. In this assay, the influx of Ca^2+ through the channel is quantified with the aid of a Ca^2+-sensitive dye (type Fluo-4, Molecular Probes Europe BV, Leiden, the Netherlands) in a fluorescent imaging plate reader (FLIPR, Molecular Devices, Sunnyvale, USA).
Chinese hamster ovary cells (CHO K1 cells, European Collection of Cell Cultures (ECACC) United Kingdom) are stably transfected with the VR1 gene. For functional testing, these cells are plated out on poly-D-lysine-coated black 96-well plates having a clear base (BD Biosciences, Heidelberg, Germany) at a density of 25,000 cells/well. The cells are incubated overnight at 37° C. and 5% CO2 in a culture medium (Ham's F12 nutrient mixture, 10% by volume of FCS (foetal calf serum), 18 μg/ml of L-proline). The next day the cells are incubated with Fluo-4 (Fluo-4 2 μM, 0.01% by volume of Pluronic F127, Molecular Probes in HBSS (Hank's buffered saline solution), Gibco Invitrogen GmbH, Karlsruhe, Germany) for 30 minutes at 37° C. Subsequently, the plates are washed three times with HBSS buffer and after further incubation for 15 minutes at RT used for Ca^2+ measurement in a FLIPR assay. The Ca^2+-dependent fluorescence is measured before and after the addition of the substances to be tested (λex wavelength=488 nm, λem=540 nm). Quantification is carried out by measuring the highest fluorescence intensity (FC, fluorescence counts) over time.
The FLIPR protocol consists of 2 substance additions. First the compounds to be tested (10 μM) are pipetted onto the cells and the Ca^2+ influx is compared with the control (capsaicin 10 μM) (% activation based on the Ca^2+ signal after the addition of 10 μM of capsaicin). […]
Desensitising agonists and antagonists led to suppression of the Ca^2+ influx. The % inhibition is calculated compared to the maximum achievable inhibition with 10 μM of capsaicin.
Starting from the percentage displacement caused by different concentrations of the compounds to be tested of general formula I, IC50 inhibitory concentrations which cause a 50-per cent displacement of capsaicin were calculated. Ki values for the test substances were obtained by conversion by means of the Cheng-Prusoff equation (Cheng, Prusoff; Biochem. Pharmacol. 22, 3099-3108, 1973).
NADA=N-arachidonoyl dopamine

Assay [2] has as its target T1, hVR1. As to the kind of experiment: Functional test on human VR1, 45° C. stimulus. In kind it is cell-based, human being. Conditions: for IC50: read-out: IC50 (human being) [nM], 45° C.
The target of assay [3] is T1, hVR1. Kind of assay: Functional test on hVR1 after pH stimulus. In kind it is cell-based, human being. Conditions: @ 10 μM, read-out: IC50 (human being) hVR1, pH: inhibition (as a percentage).
Assay [4] deals with T1, hVR1. As to the kind of experiment: Functional test on VR1, FLIPR Ca2+ influx in transfected CHO K1 cells, capsaicin. In kind it is cell-based, human being. Conditions: capsaicin (Cap); includes values given in brackets after pAG; read-out: Ki (human being) [nM] Cap.
Assay [5] has as its target T2, rat-species vanilloid receptor 1 (VR1/TRPV1) (Rattus norvegicus, UniProt O35433).
T2 construct: endogenous in cells; host or cells: primary cells dissociated from rat dorsal root ganglia (DRG), cultured 2-3 days with NGF
As to the kind of experiment: Functional testing on the vanilloid receptor 1, FLIPR Ca2+ influx in rat DRG cells, capsaicin. In kind it is cell-based. More on the design: key to Ki (rat) [nM] Cap: agonist / partial agonist / no effect: AG=agonist; pAG=partial agonist; NE=no effect. Conditions: for Ki: capsaicin (Cap), includes values given in brackets after pAG. An excerpt:
I. Functional Testing Carried Out on the Vanilloid Receptor 1 (VRI/TRPV1 Receptor)
The agonistic or antagonistic effect of the substances to be tested on the rat-species vanilloid receptor 1 (VR1/TRPV1) can be determined using the following assay. In this assay, the influx of Ca^2+ through the receptor channel is quantified with the aid of a Ca^2+-sensitive dye (type Fluo-4, Molecular Probes Europe BV, Leiden, the Netherlands) in a fluorescent imaging plate reader (FLIPR, Molecular Devices, Sunnyvale, USA).
Complete medium: 50 ml HAMS F12 nutrient mixture (Gibco Invitrogen GmbH, Karlsruhe, Germany) with
10% by volume of FCS (foetal calf serum, Gibco Invitrogen GmbH, Karlsruhe, Germany, heat-inactivated);
2 mM L-glutamine (Sigma, Munich, Germany);
1% by weight of AA solution (antibiotic/antimyotic solution, PAA, Pasching, Austria) and 25 ng/ml NGF medium (2.5 S, Gibco Invitrogen GmbH, Karlsruhe, Germany)
Cell culture plate: Poly-D-lysine-coated, black 96-well plates having a clear base (96-well black/clear plate, BD Biosciences, Heidelberg, Germany) are additionally coated with laminin (Gibco Invitrogen GmbH, Karlsruhe, Germany), the laminin being diluted with PBS (Ca—Mg-free PBS, Gibco Invitrogen GmbH, Karlsruhe, Germany) to a concentration of 100 μg/ml. Aliquots having a laminin concentration of 100 μg/ml are removed and stored at −20° C. The aliquots are diluted with PBS in a ratio of 1:10 to 10 μg/ml of laminin and respectively 50 μL of the solution are pipetted into a recess in the cell culture plate. The cell culture plates are incubated for at least two hours at 37° C., the excess solution is removed by suction and the recesses are each washed twice with PBS. The coated cell culture plates are stored with excess PBS which is not removed until just before the feeding of the cells.
Preparation of the Cells:
The vertebral column is removed from decapitated rats and placed immediately into cold HBSS buffer (Hank's buffered saline solution, Gibco Invitrogen GmbH, Karlsruhe, Germany), i.e. buffer located in an ice bath, mixed with 1% by volume (per cent by volume) of an AA solution (antibiotic/antimyotic solution, PAA, Pasching, Austria). The vertebral column is cut longitudinally and removed together with fasciae from the vertebral canal. Subsequently, the dorsal root ganglia (DRG) are removed and again stored in cold HBSS buffer mixed with 1% by volume of an AA solution. The DRG, from which all blood remnants and spinal nerves have been removed, are transferred in each case to 500 μL of cold type 2 collagenase (PAA, Pasching, Austria) and incubated for 35 minutes at 37° C. After the addition of 2.5% by volume of trypsin (PAA, Pasching, Austria), incubation is continued for 10 minutes at 37° C. After complete incubation, the enzyme solution is carefully pipetted off and 500 μL of complete medium are added to each of the remaining DRG. The DRG are respectively suspended several times, drawn through cannulae No. 1, No. 12 and No. 16 using a syringe and transferred to a 50 ml Falcon tube which is filled up to 15 ml with complete medium. The contents of each Falcon tube are respectively filtered through a 70 μm Falcon filter element and centrifuged for 10 minutes at 1,200 rpm and RT. The resulting pellet is respectively taken up in 250 μL of complete medium and the cell count is determined.
The number of cells in the suspension is set to 3×10^5 per ml and 150 μL of this suspension are in each case introduced into a recess in the cell culture plates coated as described hereinbefore. In the incubator the plates are left for two to three days at 37° C., 5% by volume of CO2 and 95% relative humidity. […]

Assay [6] deals with T1, hVR1. Kind of assay: Functional test on VR1, FLIPR Ca2+ influx in transfected CHO K1 cells, capsaicin. Format: cell-based. Conditions: capsaicin (Cap), read-out: Ki (human being) Cap column: inhibition (as a percentage).

Broadly, the Ki is the dissociation constant of the complex between target and ligand, obtained from inhibition or displacement. The term IC50 denotes the point on the concentration scale where inhibition reaches its midpoint. By inhibition is commonly meant the change of the read-out against control, counted positive when it falls.

T1 sequence (Q8NER1 whole entry): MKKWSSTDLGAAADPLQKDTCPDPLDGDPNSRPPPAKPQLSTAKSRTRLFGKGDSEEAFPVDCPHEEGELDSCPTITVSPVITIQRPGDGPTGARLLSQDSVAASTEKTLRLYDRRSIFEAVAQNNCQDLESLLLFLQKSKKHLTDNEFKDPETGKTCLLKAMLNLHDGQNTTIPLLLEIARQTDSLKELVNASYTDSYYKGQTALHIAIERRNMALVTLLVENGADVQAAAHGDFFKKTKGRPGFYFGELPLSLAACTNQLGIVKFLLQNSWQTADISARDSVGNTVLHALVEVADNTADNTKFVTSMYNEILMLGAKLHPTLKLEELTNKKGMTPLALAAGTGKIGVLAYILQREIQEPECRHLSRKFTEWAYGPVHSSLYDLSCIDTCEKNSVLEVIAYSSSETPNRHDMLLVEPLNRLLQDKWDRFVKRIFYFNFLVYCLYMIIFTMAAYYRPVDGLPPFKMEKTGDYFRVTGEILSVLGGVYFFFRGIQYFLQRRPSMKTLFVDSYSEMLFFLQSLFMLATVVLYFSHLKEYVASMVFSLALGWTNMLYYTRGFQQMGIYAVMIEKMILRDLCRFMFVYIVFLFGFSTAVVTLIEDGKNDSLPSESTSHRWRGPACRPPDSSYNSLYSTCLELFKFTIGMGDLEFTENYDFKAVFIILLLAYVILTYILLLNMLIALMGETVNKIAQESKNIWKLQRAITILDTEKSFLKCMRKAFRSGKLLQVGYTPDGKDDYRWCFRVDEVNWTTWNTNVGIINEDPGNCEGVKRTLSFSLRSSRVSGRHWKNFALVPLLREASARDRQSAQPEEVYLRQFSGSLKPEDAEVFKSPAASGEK
T2 sequence (O35433 whole entry): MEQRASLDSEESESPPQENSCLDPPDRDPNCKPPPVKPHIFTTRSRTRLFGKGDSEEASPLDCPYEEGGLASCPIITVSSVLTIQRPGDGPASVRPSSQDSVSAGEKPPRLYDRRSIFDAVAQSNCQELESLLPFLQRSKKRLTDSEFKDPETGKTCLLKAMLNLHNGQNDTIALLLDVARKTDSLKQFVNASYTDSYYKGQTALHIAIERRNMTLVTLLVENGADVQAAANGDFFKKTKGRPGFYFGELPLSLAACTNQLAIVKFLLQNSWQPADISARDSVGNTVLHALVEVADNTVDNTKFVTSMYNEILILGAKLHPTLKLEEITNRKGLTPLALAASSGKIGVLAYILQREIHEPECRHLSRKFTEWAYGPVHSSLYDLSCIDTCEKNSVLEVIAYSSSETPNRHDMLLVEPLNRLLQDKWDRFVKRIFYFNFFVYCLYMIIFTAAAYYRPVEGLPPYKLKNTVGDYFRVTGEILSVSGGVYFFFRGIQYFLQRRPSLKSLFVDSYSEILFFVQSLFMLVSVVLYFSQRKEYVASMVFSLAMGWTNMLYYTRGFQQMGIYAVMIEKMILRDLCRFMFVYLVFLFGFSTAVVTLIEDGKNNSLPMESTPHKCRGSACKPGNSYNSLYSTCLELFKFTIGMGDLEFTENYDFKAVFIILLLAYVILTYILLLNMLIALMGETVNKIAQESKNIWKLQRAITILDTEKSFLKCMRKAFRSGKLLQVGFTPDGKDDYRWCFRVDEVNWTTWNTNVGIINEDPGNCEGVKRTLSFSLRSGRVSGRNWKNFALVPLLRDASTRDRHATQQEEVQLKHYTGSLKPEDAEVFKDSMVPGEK

As to `CC(C(=O)NCc1cc(C(F)(F)F)nn1-c1cccc(Cl)c1)c1cccc2[nH]ncc12` (centres unmarked) [Example 27, N-((1-(3-chlorophenyl)-3-(trifluoromethyl)-1H-pyrazol-5-yl)methyl)-2-(1H-indazol-4-yl)propanamide], the inhibition constant (Ki) worked out at 0.008 nM on hVR1 [1], 1.1 nM at hVR1 [4] and 11.2 nM in assay [5]. Moreover, the IC50 at hVR1 [2] was 297 nM. In addition, on hVR1 [3], the inhibition at 10 µM came out at 13%.

On to `CC(C(=O)NCc1cc(C(C)(C)C)nn1-c1cccc(Cl)c1)c1cccc2ccc(O)cc12` (centres unmarked) [Example 57, N-((3-tert-butyl-1-(3-chlorophenyl)-1H-pyrazol-5-yl)methyl)-2-(7-hydroxynaphthalen-1-yl)propanamide], for which the Ki on hVR1 [1] is 0.1 nM; on hVR1 [4], 1.6 nM; in assay [5], 4.2 nM. Also, the IC50 on hVR1 [2] stood at 25.6 nM. Further, at hVR1 [3], the inhibition at 10 µM was 13%.

For `CC(C(=O)NCc1cc(C(C)(C)C)nn1-c1ccc(F)c(Cl)c1)c1cccc2cnccc12` (centres unmarked) [Example 69, N-((3-tert-butyl-1-(3-chloro-4-fluorophenyl)-1H-pyrazol-5-yl)methyl)-2-(isoquinolin-5-yl)propanamide], the Ki turned out to be 0.004 nM on hVR1 [1], 0.2 nM on hVR1 [4] and 0.9 nM in assay [5]. Moreover, the inhibition at 10 µM on hVR1 [2] (@ 10 μM, read-out: IC50 (human being), 45° C.: inhibition (as a percentage)) was determined as 26%; on hVR1 [3], 13%. Further, the “Ki (rat) [nM] Cap: agonist / partial agonist / no effect” value in assay [5] is “pAG”.

As to `COc1ccc(Cn2nc(C(F)(F)F)cc2CNC(=O)C(C)c2ccc3c(c2)OCCO3)cc1` (centres unmarked) [Example 202, 2-(2,3-dihydrobenzo[b][1,4]dioxin-6-yl)-N-((1-(4-methoxybenzyl)-3-(trifluoromethyl)-1H-pyrazol-5-yl)methyl)propanamide], the inhibition at 5 µM at hVR1 [6] was 13%.
